Experiment: Remote loading of carfilzomib precipitate into liposomes (drug and lipid by HPLC after purification)
Assay type: physicochemical
[1] = 250 mM ammonium sulfate liposomes, drug added at 200 g drug/mol HSPC
[2] = input drug/HSPC 91.8 g/mol, [(NH4)2SO4] 250 mM
[3] = input drug/HSPC 167.3 g/mol, [(NH4)2SO4] 250 mM
[4] = input drug/HSPC 251.8 g/mol, [(NH4)2SO4] 250 mM
[5] = input drug/HSPC 338.1 g/mol, [(NH4)2SO4] 250 mM
[6] = input drug/HSPC 432.8 g/mol, [(NH4)2SO4] 250 mM
[7] = input drug/HSPC 450.6 g/mol, [(NH4)2SO4] 500 mM
[8] = input drug/HSPC 545.9 g/mol, [(NH4)2SO4] 500 mM
[9] = input drug/HSPC 639.2 g/mol, [(NH4)2SO4] 500 mM
[10] = input drug/HSPC 639.2 g/mol, [(NH4)2SO4] 500 mM, listed as Carfilzomib
[11] = input drug/HSPC 758.7 g/mol, [(NH4)2SO4] 500 mM
[12] = input drug/HSPC 758.7 g/mol, [(NH4)2SO4] 500 mM, listed as Carfilzomib
[13] = triethylammonium sulfate gradient, input 650 g drug/mol HSPC, at 30 min

- final drug to lipid ratio [1]: 136.9±7.35 g drug/mol of HSPC
- loading efficiency [1]: 67.94±3.67%
- loading efficiency (DMSO 1% and above (up to 10% v/v), input 200 ug/umol, ammonium sulfate liposomes): 74-94%
- loading (DMSO absent): practically no loading
- final drug load (control liposomes with 250 mM sodium sulfate (no gradient), drug added at 200 g drug/mol HSPC): 29.01±0.79 g drug/mol of HSPC
- effect of time between precipitate formation and loading on loading efficiency (delay up to 12 h): does not have a significant impact
- efficiency of remote loading (drug added as solid powder, 65 C for 30 min, 100 g drug/mol HSPC): 3.88%±0.053%
- efficiency of remote loading (drug added as solid powder, 65 C for 120 min, 100 g drug/mol HSPC): 3.47%±0.030%
- Drug payload/carrier weight ratio [2]: 0.07 g drug/g total lipid
- Output drug/HSPC [2]: 83.5 g/mol
- efficiency [2]: 90.9%
- Drug payload/carrier weight ratio [3]: 0.11 g drug/g total lipid
- Output drug/HSPC [3]: 127.2 g/mol
- efficiency [3]: 76.0%
- Drug payload/carrier weight ratio [4]: 0.15 g drug/g total lipid
- Output drug/HSPC [4]: 174.1 g/mol
- efficiency [4]: 69.1%
- Drug payload/carrier weight ratio [5]: 0.18 g drug/g total lipid
- Output drug/HSPC [5]: 210.7 g/mol
- efficiency [5]: 62.3%
- Drug payload/carrier weight ratio [6]: 0.20 g drug/g total lipid
- Output drug/HSPC [6]: 240.5 g/mol
- efficiency [6]: 55.6%
- Drug payload/carrier weight ratio [7]: 0.29 g drug/g total lipid
- Output drug/HSPC [7]: 345.2 g/mol
- efficiency [7]: 76.6%
- Drug payload/carrier weight ratio [8]: 0.32 g drug/g total lipid
- Output drug/HSPC [8]: 380.9 g/mol
- efficiency [8]: 69.8%
- Drug payload/carrier weight ratio [9]: 0.37 g drug/g total lipid
- Output drug/HSPC [9]: 440 ± 10.2 g/mol
- efficiency [9]: 68.7±4.80%
- Output drug/HSPC [10]: 438.9 g/mol
- efficiency [10]: 68.7%
- Drug payload/carrier weight ratio [11]: 0.4 g drug/g total lipid
- Output drug/HSPC [11]: 469 ± 4.9 g/mol
- efficiency [11]: 61.7±1.2%
- Drug payload/carrier weight ratio [12]: 0.40 g drug/g total lipid
- Output drug/HSPC [12]: 468.2 g/mol
- efficiency [12]: 61.7%
- efficiency of remote loading (room temperature, 3 POPC/2 Chol/0.15 PEG-DSPE liposomes, 187 g drug/mol): 100.52%±1.01%
- efficiency of remote loading (room temperature, 95 PChemsPC/5 PEG-DSPE liposomes, 100 g drug/mol PChemsPC): 95.5%±1.23%
- efficiency of remote loading (trapping agent mellitic acid, 100 g drug/mol HSPC): 37.4%±2.01%
- efficiency of remote loading (trapping agent napthelenedisulfonic acid, 100 g drug/mol HSPC): 95.1%±1.76%
- efficiency [13]: 65.9±1.98%
- greatest payload achieved [13]: 440±12.6 g drug/mol HSPC
Structure (SMILES): CC(C)C[C@H](NC(=O)[C@H](CCc1ccccc1)NC(=O)CN1CCOCC1)C(=O)N[C@@H](Cc1ccccc1)C(=O)N[C@@H](CC(C)C)C(=O)[C@@]1(C)CO1 [carfilzomib]
